Reference: PubChem BioAssay (NCI)
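Method: 48-hour compound exposure of cells in 96-well plates, five concentrations, linear interpolation of endpoints. Here, GI50 denotes the concentration required for 50% inhibition of growth. At the TGI there is no net growth.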

How the values were obtained:
Test in all cases: DTP human tumour cell line panel, 48 h
[1] = test system: RXF 393 renal
[2] = test system: SNB-19 CNS
[3] = test system: SK-MEL-2 melanoma
[4] = test system: COLO 205 colon
[5] = test system: SF-539 CNS
[6] = test system: OVCAR-3 ovarian
[7] = test system: HOP-62 NSCLC
[8] = test system: EKVX NSCLC
[9] = test system: UO-31 renal
[10] = test system: K-562 leukemia
[11] = test system: MCF7 breast
[12] = test system: BT-549 breast
[13] = test system: NCI-H460 lung
[14] = test system: 786-0 renal
[15] = test system: MALME-3M melanoma
[16] = test system: LOX IMVI melanoma
[17] = test system: OVCAR-4 ovarian
[18] = test system: CAKI-1 renal
[19] = test system: UACC-257 melanoma
[20] = test system: M14 melanoma
[21] = test system: T-47D breast
[22] = test system: HCC-2998 colon
[23] = test system: DU-145 prostate
[24] = test system: SR leukemia
[25] = test system: HCT-15 colon
[26] = test system: OVCAR-8 ovarian
[27] = test system: SW-620 colon
[28] = test system: HT29 colon
[29] = test system: TK-10 renal
[30] = test system: NCI/ADR-RES ovarian
[31] = test system: A549 NSCLC
[32] = test system: SF-268 CNS
[33] = test system: HCT-116 colon
[34] = test system: NCI-H226 lung
[35] = test system: UACC-62 melanoma
[36] = test system: MDA-MB-231 breast
[37] = test system: PC-3 prostate
[38] = test system: A498 renal
[39] = test system: SK-OV-3 ovarian
[40] = test system: ACHN renal
[41] = test system: OVCAR-5 ovarian
[42] = test system: MOLT-4 leukemia
[43] = test system: SK-MEL-28 melanoma
[44] = test system: NCI-H23 lung
[45] = test system: SK-MEL-5 melanoma
[46] = test system: SF-295 CNS
[47] = test system: MDA-MB-435
[48] = test system: U251 CNS
[49] = test system: KM12 colon
[50] = test system: RPMI-8226 leukemia
[51] = test system: HOP-92 NSCLC
[52] = test system: SNB-75 CNS
[53] = test system: HS 578T breast
[54] = test system: HL-60(TB) leukemia
[55] = test system: IGROV1 ovarian
[56] = test system: CCRF-CEM leukemia
[57] = test system: NCI-H522 lung

## COC1O[C@H]2[C@H]3[C@@H]1[C@@H](OS(=O)(=O)c1ccc(C)cc1)C(=O)N3C[C@H]2O (some centres not stated)
[1]
  TGI: 81.7 µM
[2]
  TGI: > 100 µM
[3]
  TGI: > 100 µM
[4]
  TGI: > 100 µM
[5]
  TGI: > 100 µM
[6]
  TGI: > 100 µM
[7]
  TGI: > 100 µM
[8]
  TGI: > 100 µM
[9]
  TGI: > 100 µM
[10]
  TGI: > 100 µM
[11]
  TGI: > 100 µM
[12]
  TGI: > 100 µM
[13]
  TGI: > 100 µM
[14]
  TGI: > 100 µM
[15]
  TGI: > 100 µM
[16]
  TGI: > 100 µM
[17]
  TGI: > 100 µM
[18]
  TGI: > 100 µM
[19]
  TGI: > 100 µM
[20]
  TGI: > 100 µM
[21]
  TGI: > 100 µM
[22]
  TGI: > 100 µM
[23]
  TGI: > 100 µM
[24]
  TGI: > 100 µM
[25]
  TGI: > 100 µM
[26]
  TGI: > 100 µM
[27]
  TGI: > 100 µM
[28]
  TGI: > 100 µM
[29]
  TGI: > 100 µM
[30]
  TGI: > 100 µM
[31]
  TGI: > 100 µM
[32]
  TGI: > 100 µM
[33]
  TGI: > 100 µM
[34]
  TGI: > 100 µM
[35]
  TGI: > 100 µM
[36]
  TGI: > 100 µM
[37]
  TGI: > 100 µM
[38]
  TGI: > 100 µM
[39]
  TGI: > 100 µM
[40]
  TGI: > 100 µM
[41]
  TGI: > 100 µM
[42]
  TGI: > 100 µM
[43]
  TGI: > 100 µM
[44]
  TGI: > 100 µM
[45]
  TGI: > 100 µM
[46]
  TGI: > 100 µM
[47]
  TGI: > 100 µM
[48]
  TGI: > 100 µM
[49]
  TGI: > 100 µM
[50]
  TGI: > 100 µM

## COc1cc(/C=C/C(=O)c2ccc(NC(=O)CSc3nnc(-c4cc(OC)c(OC)c(OC)c4)n3-c3ccccc3)cc2)cc(OC)c1OC
[2]
  GI50: 2.18 µM
  TGI: > 100 µM
[7]
  GI50: 1.84 µM
  TGI: 7.06 µM
[14]
  GI50: 1.05 µM
  TGI: 4.63 µM
[17]
  GI50: 1.8 µM
  TGI: > 100 µM
[24]
  GI50: 0.316 µM
  TGI: > 100 µM
[29]
  GI50: 9.3 µM
  TGI: > 100 µM
[36]
  GI50: 4.09 µM
  TGI: > 100 µM
[51]
  GI50: 2.06 µM
  TGI: 9.67 µM
[52]
  GI50: 0.429 µM
  TGI: 14.2 µM
[48]
  GI50: 0.527 µM
  TGI: > 100 µM
[53]
  GI50: 20.4 µM
  TGI: > 100 µM

## Cc1cn2c(/C=N/N=C(N)N)c(-c3cccnc3)nc2s1
[1]
  GI50: 15.2 µM
  TGI: 59.1 µM
[2]
  GI50: 12.7 µM
  TGI: 28.9 µM
[3]
  GI50: 18.7 µM
  TGI: 45.5 µM
[4]
  GI50: 11.6 µM
  TGI: 27.5 µM
[6]
  GI50: 10.3 µM
  TGI: 22.9 µM
[7]
  GI50: 10 µM
  TGI: 24 µM
[8]
  GI50: 16.7 µM
  TGI: 36.3 µM
[9]
  GI50: 6.1 µM
  TGI: 21.4 µM
[11]
  GI50: 20.8 µM
  TGI: > 100 µM
[12]
  GI50: 12.8 µM
  TGI: 30.9 µM
[13]
  GI50: 14.7 µM
  TGI: 76.6 µM
[14]
  GI50: 12.9 µM
  TGI: 26.8 µM
[15]
  GI50: 8.14 µM
  TGI: 21.4 µM
[16]
  GI50: 12.9 µM
  TGI: 28.7 µM
[17]
  GI50: 15.7 µM
  TGI: 29.6 µM
[18]
  GI50: 8.07 µM
  TGI: 22.4 µM
[19]
  GI50: 16.5 µM
  TGI: 35.4 µM
[20]
  GI50: 10 µM
  TGI: 23.5 µM
[21]
  GI50: 1.94 µM
  TGI: 12.1 µM
[25]
  GI50: 4.39 µM
  TGI: 18.1 µM
[26]
  GI50: 27.4 µM
  TGI: 69 µM
[27]
  GI50: 11.5 µM
  TGI: 35.2 µM
[28]
  GI50: 4.18 µM
  TGI: 16.1 µM
[54]
  GI50: 3.8 µM
  TGI: 53.8 µM
[29]
  GI50: 6.85 µM
  TGI: 21.3 µM
[30]
  GI50: 2.81 µM
  TGI: 9.97 µM
[31]
  GI50: 16.3 µM
  TGI: 56.1 µM
[32]
  GI50: 12.9 µM
  TGI: 35.8 µM
[33]
  GI50: 8.62 µM
  TGI: 37.8 µM
[34]
  GI50: 10.1 µM
  TGI: 29.4 µM
[35]
  GI50: 11 µM
  TGI: 23.6 µM
[36]
  GI50: 10.1 µM
  TGI: 24.2 µM
[55]
  GI50: 15.6 µM
  TGI: 49.8 µM
[51]
  GI50: 16.8 µM
  TGI: 33.4 µM
[37]
  GI50: 6.95 µM
  TGI: 24.7 µM
[39]
  GI50: 15.9 µM
  TGI: 33.3 µM
[40]
  GI50: 11.5 µM
  TGI: 25.8 µM
[41]
  GI50: 15.2 µM
  TGI: 28.5 µM
[42]
  GI50: 3.66 µM
  TGI: 38.6 µM
[43]
  GI50: 12.4 µM
  TGI: 26.3 µM
[44]
  GI50: 11.9 µM
  TGI: 25.2 µM
[45]
  GI50: 2.68 µM
  TGI: 13.7 µM
[46]
  GI50: 11.9 µM
  TGI: 26.5 µM
[56]
  GI50: 4.38 µM
  TGI: 55 µM
[47]
  GI50: 2.4 µM
  TGI: 7.15 µM
[57]
  GI50: 12.1 µM
  TGI: 39.6 µM
[48]
  GI50: 10.2 µM
  TGI: 23.7 µM
[49]
  GI50: 1.58 µM
  TGI: 7.21 µM
[50]
  GI50: 8.91 µM
  TGI: 58.9 µM
[53]
  GI50: 23.5 µM
  TGI: 47.1 µM
